The results in this text go back to US20220288038A1, “ABCC11 INHIBITOR” (THE UNIVERSITY OF TOKYO, priority 2019, published 2022).

Assay [1] addresses T1, human ABCC11 WT (NCBI accession NM_033151) (Homo sapiens, UniProt Q96J66).
T1 construct: made in house; host or cells: plasma membrane vesicles from HEK293-derived 293A cells infected with ABCC11-expressing recombinant adenovirus
The assay can be described thus: Inhibition of ABCC11-mediated ATP-dependent [3H]-DHEAS transport into ABCC11-expressing plasma membrane vesicles (vesicle transport assay, rapid filtration). The class given is biochemical. An excerpt:
(§1) Using an in vitro transport system with ABCC11-expresssing plasma. membrane vesicles (FIG. 1A), we investigated the effect of the test compound on ABCC11 function. To confirm the experimental system, we first examined the time-dependent increase in ATP-dependent dehydroepiandrosterone sulfate (DHEAS)—an ABCC11 substrate (Chen et al., 2005)—transport into the ABCC11-expressing plasma membrane vesicles (FIG. 1B).
(§2) Critical materials and resources used in this study were summarized in Supplementary Table S1. […]
FIG. 1. […] The DHEAS transport into membrane vesicles was measured at the indicated periods with or without ATP; the ATP-dependent DHEAS transport was calculated by subtracting the DHEAS transport activity in the absence of ATP from that in the presence of ATP. Data are expressed as the mean±SD. n=3. […] The DHEAS transport activities were measured in the presence of febuxostat at the indicated concentrations for 5 min. Data are expressed as the mean±SD. n=4. […]
Critical materials and resources used in this study were summarized in Supplementary Table S1. […] After the purification by a CsCl gradient ultracentrifugation method, the adenovirus titer was determined by using an. […]

Another assay has as its target T2, human ABCC11 (Homo sapiens, UniProt Q96J66).
T2 construct: The complete human ABCC11 cDNA; expressed in transfected cells; host or cells: 293A cells (HEK293-derived), adenovirus-infected; plasma membrane vesicles prepared from them
Kind of assay: in vitro DHEAS vesicle transport assay with ABCC11-expressing plasma membrane vesicles. The class given is biochemical. The settings on record: ATP-dependent transport of 100 nM [3H]-DHEAS into ABCC11-expressing 293A plasma membrane vesicles, 5 min, 37° C., febuxostat at indicated concentrations.
From the text: as §1, §2
Membrane vesicles were prepared from 293A cells infected with the ABCC11-expressing or EGFP-expressing (control) adenovirus as described previously (Toyoda et al., 2017). […] Protein concentration of the plasma membrane vesicles was quantified using a BCA Protein Assay Kit (Pierce, Rockford, Ill., USA) with bovine serum albumin (BSA) as a standard according to the manufacturer's protocol.
Experiments to study the in vitro transport of [1,2,6,7-^3H(N)]-dehydroepiandrosterone sulfate (DHEAS) (Perkin-Elmer Japan, Tokyo, Japan), an ABCC11 substrate (Chen et al., 2005), into ABCC11-expressing and control vesicles were performed by using a rapid filtration technique (Toyoda et al., 2017; Toyoda et al., 2019) with a minor modification. […] Then, the radioactivity derived from the incorporated DHEAS was measured. […]

Molecules are shown by their SMILES. “Also recorded” adds a separate entry of the source.

T2 sequence (Q96J66 whole entry): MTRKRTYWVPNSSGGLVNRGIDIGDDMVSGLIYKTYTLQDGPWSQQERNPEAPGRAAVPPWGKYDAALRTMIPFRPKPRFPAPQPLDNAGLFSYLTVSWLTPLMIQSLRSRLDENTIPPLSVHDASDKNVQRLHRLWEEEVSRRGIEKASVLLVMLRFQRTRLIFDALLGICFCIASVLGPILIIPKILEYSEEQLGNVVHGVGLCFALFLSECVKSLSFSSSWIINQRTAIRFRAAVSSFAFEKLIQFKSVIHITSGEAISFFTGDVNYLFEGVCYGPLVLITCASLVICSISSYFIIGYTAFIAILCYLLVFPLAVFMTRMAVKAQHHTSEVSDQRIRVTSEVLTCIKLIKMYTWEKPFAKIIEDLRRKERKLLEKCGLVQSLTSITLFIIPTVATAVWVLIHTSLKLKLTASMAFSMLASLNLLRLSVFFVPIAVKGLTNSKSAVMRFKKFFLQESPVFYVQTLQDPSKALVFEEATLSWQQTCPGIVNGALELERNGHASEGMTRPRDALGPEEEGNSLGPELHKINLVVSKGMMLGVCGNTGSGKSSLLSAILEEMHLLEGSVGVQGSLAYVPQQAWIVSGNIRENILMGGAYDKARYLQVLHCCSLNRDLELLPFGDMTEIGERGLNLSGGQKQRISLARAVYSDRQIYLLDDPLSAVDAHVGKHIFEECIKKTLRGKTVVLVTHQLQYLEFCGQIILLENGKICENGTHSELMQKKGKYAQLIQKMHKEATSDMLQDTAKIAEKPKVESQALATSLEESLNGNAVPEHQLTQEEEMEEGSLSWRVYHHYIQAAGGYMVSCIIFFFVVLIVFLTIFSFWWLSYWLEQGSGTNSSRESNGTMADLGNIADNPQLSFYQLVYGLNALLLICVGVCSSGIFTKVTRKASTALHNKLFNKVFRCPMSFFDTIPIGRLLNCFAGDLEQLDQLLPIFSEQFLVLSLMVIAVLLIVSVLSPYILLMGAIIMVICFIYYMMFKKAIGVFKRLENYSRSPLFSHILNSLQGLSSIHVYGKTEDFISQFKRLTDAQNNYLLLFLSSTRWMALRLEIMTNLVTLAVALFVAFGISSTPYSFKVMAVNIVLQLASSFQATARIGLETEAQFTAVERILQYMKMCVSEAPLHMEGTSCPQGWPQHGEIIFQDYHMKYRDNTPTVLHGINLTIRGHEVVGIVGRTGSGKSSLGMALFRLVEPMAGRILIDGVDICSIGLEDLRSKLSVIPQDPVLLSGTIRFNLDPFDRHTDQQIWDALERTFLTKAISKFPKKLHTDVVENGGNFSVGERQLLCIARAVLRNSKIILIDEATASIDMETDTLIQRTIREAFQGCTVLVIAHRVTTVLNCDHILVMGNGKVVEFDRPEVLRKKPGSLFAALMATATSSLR
T1 sequence (Q96J66 whole entry): as above

A word on the IC50: it is the point on the concentration scale where inhibition reaches its midpoint. `Cc1nc(-c2ccc(OCC(C)C)c(C#N)c2)sc1C(=O)O` [Febuxostat] returned an IC50 in assay [1] of 3.26 µM. With `Cc1nc(-c2ccc(OCC(C)C)c(C#N)c2)sc1C(=O)O` [febuxostat], on human ABCC11, the “inhibition of ABCC11-mediated DHEAS transport” value is “Dose-dependent inhibition; also recorded: inhibited ABCC11”.
